Data on seven compounds can be found in paper PMC7466001 (Molecules, 2020).

The nature of series [1]: Lipophilicity study, distribution in n-octanol/PBS (pH 7.40). The format is physicochemical. The note with it: n-octanol/PBS buffer pH 7.4. From the text:
In the course of the lipophilicity study, each isolated DOTA radioconjugate (determined as fully stable in HS) was examined for distribution in the system of n-octanol and a phosphate-buffered saline (PBS) buffer (pH = 7.4) to estimate the lipophilicity of the radiocomplex. The lipophilicity of each radioconjugate (logD), defined as the logarithm of the distribution coefficient (D) is based on the ratio of the radioactivity of the organic phase to the radioactivity of the aqueous phase. The stability of the studied radioconjugate was verified simultaneously during the experiment through the HPLC analysis of the aqueous phase. LogD values of [^68Ga]Ga-5A–[^68Ga]Ga-5E and [^177Lu]Lu-5A–[^177Lu]Lu-5E are listed below in Table 3.
The lipophilicity values of the radioconjugates (logD), expressed as the logarithm of its D in the n-octanol/PBS (pH 7.40) system, mimicking the physiological conditions (Product Properties Test Guidelines of the Office of Prevention, Pesticides and Toxic Substances 830.7550, 1996), were determined right after the SPE method purification and ethanol evaporation processes. A solution of isolated selected radioconjugate in 500 µL of a 0.1 M PBS buffer at pH 7.40 and 500 µL of n-octanol was vigorously stirred and centrifuged (13,500 rpm for 5 min) to separate the immiscible phases. The radioactivities of the aqueous and organic layers were determined using a well-type NaI(Tl) detector. The distribution coefficient was calculated as the ratio of the radioactivity of the radioconjugate in the organic phase to that in the aqueous phase. Each measurement was performed in triplicate and averaged. Simultaneously, the aqueous phases were analyzed by HPLC to check whether the studied radioconjugate remained intact during the experiment.

For series [2], the target named is T1, rat neurokinin 1 receptor (Rattus norvegicus, UniProt P14600).
T1 construct: from tissue; host or cells: rat brain (membrane preparation / homogenate)
Nature of the series: Competitive radioligand binding assay using rat brain homogenates, [3H]-[Sar9,Met(O2)11]-Substance P. The note with it: for Ratio to APT: IC50 ratio to aprepitant, rat NK1R. From the text: An important consideration in the search of conjugate vectors for radionuclides is whether the functionalization of a high affinity ligand would not reduce the binding strength for a desired receptor. For the preliminary addressing of this issue in the case of our conjugates, we measured the affinity of compounds 5A–E (uncomplexed precursors) for the rat neurokinin-1 receptor. The human (hNK1R) and the rat (rNK1R) neurokinin 1 receptors differ in their sequences and pharmacology.
In brief, the membrane preparations obtained from rat brains were incubated at 25 °C for 60 min in the presence of a selective radioligand [^3H]-[Sar^9,Met(O2)^11]-Substance P obtained from PerkinElmer, (Waltham, MA, USA) and the increasing concentrations of the tested compounds (each concentration in duplicate). Non-specific binding was measured in the presence of 10 μM cold Substance P. The assay buffer was composed of 50 mM Tris-HCl (pH 7.4), 5 mM MnCl2, bovine serum albumin (BSA) (0.1 mg/mL), bacitracin (100 μg/mL), bestatin (30 μM), phenylmethylsulfonyl fluoride (30 μg/mL), and captopril (10 μM). The reaction total volume was 1 mL. With the incubation having been terminated, a rapid filtration through GF/B Whatman glass fiber strips was done with a M-24 Cell Harvester (Brandel, Gaithersburg, MD, USA). The filters were pre-soaked overnight with 0.5% polyethyleneimine so that the extent of non-specific binding could be minimized. After the filtration, the strips were dried, the filter discs were placed separately in 24-well plates, and a Betaplate Scint scintillation solution (PerkinElmer, Waltham, MA, USA) was added to each well. Radioactivity was measured with a MicroBeta LS scintillation counter, Trilux (PerkinElmer, Waltham, MA, USA). The data came from three independent experiments done in duplicate. The results are presented as IC50 with SEM.

The format of series [3] is physicochemical. On the procedure: All APT conjugates with DOTA, Bn-DOTA, and Bn-DOTAGA were radiolabeled with ^68Ga and ^177Lu, while APT conjugates with DTPA were only radiolabeled with ^68Ga. Synthesized radioconjugates were purified using the solid phase extraction (SPE) method before HPLC identification (Figure 2 and Figure 3) and further analyses.
Moreover, in the radiochromatogram of [^177Lu]Lu-DOTA-Bn-Et-APT ([^177Lu]Lu-6A) one can see a small additional signal (about 19.3 min) that is recognized as an early by-product of an interaction with solvent (EtOH) from the purification process. To verify the identity of all synthesized [^68Ga]Ga-radioconjugates in a non-carrier added scale, the non-radioactive stable gallium reference compounds (Ga-5A–Ga-9A and Ga-5A–Ga-5E) were synthesized and characterized by mass spectrometry. […]
The ^68Ga radiolabeling of the DOTA, Bn-DOTA, and Bn-DOTAGA conjugates of APT was performed according to the following procedure: 145 µL of a concentrated solution of [^68Ga]GaCl3 in 0.1 M HCl from the ^68Ge/^68Ga generator (4.9 ÷ 7.2 MBq) was added into the solution of 25 nmol of the selected conjugate in 200 µL of a 0.2 M acetate buffer (pH = 4.5) and heated for 5–10 min at 95 °C. […] The effectiveness of the purification was monitored by HPLC. […]

In the next series the test system is rNK1R. The arrangement: method as in PMID 19426690. The conditions noted are these: cells expressing rNK1R; cited from earlier work.
In the next series the test system is hNK1R. Also noted: method as in PMID 19426690. The conditions noted are these: cells expressing hNK1R; cited from earlier work.
Series [4] concerns the target human neurokinin 1 receptor. The arrangement: method as in PMID 9804700. The conditions noted are these: human receptor binding; cited from earlier work.
Details of series [5]: method as in PMID 15488686. The note with it: aprepitant; cited from earlier work.
Setting [6] is: uncomplexed precursors, rat brain homogenates, three independent experiments in duplicate, read-out: IC50 ± SEM.

Values joined by “and” are separate entries in the source; they are usually repeats but may differ in a detail not shown here. Equal values may be shown once. Read-outs that look alike come from different tables or passages of the source.

T1 sequence (P14600 whole entry): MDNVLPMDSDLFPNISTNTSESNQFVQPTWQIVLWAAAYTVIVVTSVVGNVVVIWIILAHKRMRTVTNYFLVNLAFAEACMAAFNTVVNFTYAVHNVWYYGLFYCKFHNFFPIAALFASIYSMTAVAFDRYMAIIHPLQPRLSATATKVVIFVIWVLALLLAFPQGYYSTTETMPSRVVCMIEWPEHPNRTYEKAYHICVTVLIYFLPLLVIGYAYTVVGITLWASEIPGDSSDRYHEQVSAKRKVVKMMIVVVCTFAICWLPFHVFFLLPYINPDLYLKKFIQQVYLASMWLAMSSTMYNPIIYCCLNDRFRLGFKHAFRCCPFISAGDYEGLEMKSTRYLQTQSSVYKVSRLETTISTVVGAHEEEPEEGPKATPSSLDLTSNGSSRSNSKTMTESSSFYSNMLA

For APT-Et-DOTA [5A], the figures for the logD in series [1] (68Ga-radiolabeled conjugate) and in series [1] (177Lu-radiolabeled conjugate) were 0.141 ± 0.019 and 0.708 ± 0.021, respectively. In series [2], the “Ratio to APT” value came to 48.2. The IC50 in series [2] (setting [6]) worked out at 6200 ± 2600 nM.
Regarding APT-Bu-DOTA [5C], the logD was 0.290 ± 0.018 in series [1] (68Ga-radiolabeled conjugate) and 0.777 ± 0.021 in series [1] (177Lu-radiolabeled conjugate). The “Ratio to APT” value in series [2] worked out at 14.3. The 50% inhibitory concentration (IC50) in series [2] (setting [6]) was 1800 ± 700 nM.
Take [^68Ga]Ga-DTPA-(Et-APT)2 [[^68Ga]Ga-9A]: the “stability of the radioconjugate after radiosynthesis” value in series [3] is given as “immediately unstable”.
Take APT-Pr-DOTA [5B]: the logD in series [1] (68Ga-radiolabeled conjugate) amounted to 0.058 ± 0.016; in series [1] (177Lu-radiolabeled conjugate) it was 0.654 ± 0.022. Also, the “Ratio to APT” value in series [2] came to 5.3. In addition, the IC50 in series [2] (setting [6]) worked out at 690 ± 70 nM.
With APT-Ac-HN-NH-DOTA [5D], the logD in series [1] (68Ga-radiolabeled conjugate) is on record as −1.012 ± 0.017; in series [1] (177Lu-radiolabeled conjugate), −0.401 ± 0.015. Further, the “Ratio to APT” value in series [2] was 19.1. Also, the IC50 in series [2] (setting [6]) is ~2500 nM and 2500 nM.
APT-Ac-Et-DOTA [5E]: the logD in series [1] (68Ga-radiolabeled conjugate) was −0.231 ± 0.015; in series [1] (177Lu-radiolabeled conjugate), 0.500 ± 0.017. Besides, in series [2], the “Ratio to APT” value turned out to be 19.7. Moreover, the IC50 in series [2] (setting [6]) was ~2500 nM and 2500 nM.
For `C[C@@H](O[C@H]1OCCN(Cc2n[nH]c(=O)[nH]2)[C@H]1c1ccc(F)cc1)c1cc(C(F)(F)F)cc(C(F)(F)F)c1` [Aprepitant, aprepitant], the half-maximal inhibitory concentration (IC50) was 128 nM in series [2] (IC50, rat brain homogenates); 130 ± 60 nM in series [2] (IC50 ± SEM, uncomplexed precursors, rat brain homogenates, three independent experiments in duplicate); 0.09 nM in series [4]. Moreover, the “Ratio to APT” value in series [2] amounted to 1.0. Also, the pKB with rNK1R is 7.3; with hNK1R it was 8.7. The log distribution coefficient (logD) in series [5] was 4.8.
